We go through three compounds from ChEMBL document CHEMBL1147150, “Design and synthesis of a potent histone deacetylase inhibitor” (J Med Chem, 2007).

The target of one experiment is Histone deacetylase. Put plainly: Inhibition of Histone deacetylase in HeLa cell nuclear extracts by fluorescence-based assay. Also on record: species or system Homo sapiens.
Another experiment addresses Histone deacetylase 1 (Homo sapiens, UniProt Q13547). Put plainly: Inhibition of human HDAC1.
In another experiment the target is T1, Histone deacetylase 8 (Homo sapiens, UniProt Q9BY41).
T1 sequence (Q9BY41 whole entry): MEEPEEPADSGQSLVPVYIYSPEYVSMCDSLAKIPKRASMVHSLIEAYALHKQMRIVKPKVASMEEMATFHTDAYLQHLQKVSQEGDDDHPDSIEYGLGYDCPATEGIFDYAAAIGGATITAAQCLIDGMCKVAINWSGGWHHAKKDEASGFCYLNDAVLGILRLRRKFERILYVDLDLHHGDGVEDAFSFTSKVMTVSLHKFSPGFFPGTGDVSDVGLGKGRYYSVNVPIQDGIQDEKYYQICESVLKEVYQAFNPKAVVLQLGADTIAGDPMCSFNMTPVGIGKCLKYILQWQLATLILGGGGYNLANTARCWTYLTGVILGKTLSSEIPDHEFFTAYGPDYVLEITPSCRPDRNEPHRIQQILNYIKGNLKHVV
Put plainly: Inhibition of human HDAC8.

Square brackets hold non-standard residues; d marks the D form. Peptide text beside a SMILES is read from it. * marks the point of attachment. Asu = N[C@@H](CCCCCC(=O)O)C(=O)O; NHOH = ON*

Histone deacetylase 1, sequence (Q13547 whole entry): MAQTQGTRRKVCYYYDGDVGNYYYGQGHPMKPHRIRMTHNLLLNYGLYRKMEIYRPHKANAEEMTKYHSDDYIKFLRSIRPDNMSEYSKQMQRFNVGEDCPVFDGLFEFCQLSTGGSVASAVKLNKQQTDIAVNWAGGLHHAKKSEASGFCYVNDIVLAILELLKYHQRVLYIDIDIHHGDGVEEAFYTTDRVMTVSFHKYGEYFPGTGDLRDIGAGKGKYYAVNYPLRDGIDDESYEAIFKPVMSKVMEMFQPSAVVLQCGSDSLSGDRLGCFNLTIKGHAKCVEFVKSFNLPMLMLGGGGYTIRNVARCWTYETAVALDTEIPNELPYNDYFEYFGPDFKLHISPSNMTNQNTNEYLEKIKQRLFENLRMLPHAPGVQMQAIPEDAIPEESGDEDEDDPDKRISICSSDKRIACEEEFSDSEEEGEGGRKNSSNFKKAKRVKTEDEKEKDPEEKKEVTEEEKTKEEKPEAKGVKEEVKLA

One may read the IC50 as the point on the concentration scale where inhibition reaches its midpoint. Low readings indicate higher potency, high ones lower potency. Regarding `COC(=O)[C@H](Cc1ccccc1)NC(=O)[C@H](CCCCCC(=O)NO)NC(=O)[C@H](C)NC(C)=O` (Ac-Ala-[Asu](NHOH)-Phe-OMe), the IC50 is 167 nM at Histone deacetylase and 174 nM on Histone deacetylase 1.
On the same counts, the results for `COC(=O)C(Cc1cccc(C[C@H](NC(C)=O)C(=O)O)c1)NC(=O)[C@@H](N)CCCCCC(=O)NO` (stereo not given in full) are 8100 nM and 40000 nM.
As usually defined, the Ki is a measure of affinity in units of concentration, obtained from inhibition or displacement. Higher therefore signals weaker binding. Take `COC(=O)[C@@H]1Cc2cccc(c2)C[C@H](NC(C)=O)C(=O)N[C@@H](CCCCCC(=O)NO)C(=O)N1`: the results for the 50% inhibitory concentration (IC50) at Histone deacetylase, against Histone deacetylase 1 and against Histone deacetylase 8 were 46 nM, 57 nM and 231 nM, respectively. Moreover, the Ki at Histone deacetylase worked out at 13.67 nM; at Histone deacetylase 1, 4.15 nM; on Histone deacetylase 8 it was 5.32 nM.
